For assay [1], the target named is native cockroach ryanodine receptors (roach femoral muscle membranes) (Periplaneta americana, UniProt A0ABQ8T696). In words: Radioligand displacement ([3H]-GN analog Cpd 1) on roach femoral muscle membranes. Type of assay: binding. Particulars: for IC50: displacement of [3H]-Cpd 1, roach muscle membranes, 60 min at 32° C., read-out: Displacement IC50 (nM) P. americana; for Radioligand Displacement (P. americana): Table 6, result in words. As to the method: Binding to Roach Femoral Muscle Membranes:
Assays were carried out in triplicate.

Assay [2] deals with native cockroach ryanodine receptors (in embryonic neuronal cells). The assay is described as follows: Calcium release assay, calcium imaging of embryonic cockroach neuronal cells (Fluo-4). Particulars: for Calcium Release (P. americana): Table 6, result in words. Type of assay: cell-based, Periplaneta americana. The source says: Embryonic neuronal cultures of the American cockroach Periplaneta americana were established, with minor modifications, following the method of Beadle and Lees (1988) (in Cell Culture Approaches to Invertebrate Neuroscience, Academic Press, New York, pp 123-127). Briefly, 26-27-day old oothecae were collected, surface-sterilized and cut open along a line one-third of the distance below the dorsal midline. The heads were removed and placed in Schneider's Drosophila medium (Invitrogen Life Technologies™, Carlsbad, Calif.). Using fine forceps 40 brains were individually removed and placed in a small glass vial containing 700 μl of ‘5+4’ medium (‘5+4’ medium contained 5 parts Schneider's Drosophila medium plus 4 parts roach Basal Medium Eagle, with Earle's salts (BME, Sigma™, St. Louis, Mo.). Roach BME (with Earle's salts) contained 5 parts Hepes (1 M), 1 part penicillin/streptomycin and 44 parts BME (with Earle's salts). ‘5+4’ medium was made fresh and sterile filtered (0.2 μm filter) just prior to use). The brains were dissociated by sequential trituration as follows: 1) brains were passed through a standard Pasteur pipette 10 times; 2) the resulting tissue suspension was passed an additional 5 times through a Pasteur pipet with tip flamed to about half of its original diameter; 3) a final 5 passes were performed using a Pasteur pipet with tip flamed to slightly less than half of its original diameter. A repeat pipettor was used to dispense a 5 μl volume of the resulting suspension into the center of each well of a 96-well, glass-bottom plate previously coated with poly-L-lysine (0.2 mg/ml solution). Cells attached to the bottom of the wells during a 50 min incubation at 27-29° C. 150 ul of a 1:1 mixture of Leibovitz's L-15 medium and Yunker's modified Grace's medium was added, and plates were maintained in a humid incubator at 27-29° C. until use. After cells were allowed to attach wells were filled with a 1:1 mixture of Leibovitz's L-15 medium and Yunker's modified Grace's medium (Leibovitz's L-15 and Grace's medium were obtained from Invitrogen Life Technologies™, Carlsbad, Calif. and Yunker's modified Grace's medium was made with Grace's medium modified by addition of 5 mg L-methionine, 10 mg L-alanine, 182 mg MgCl2.6H20, 1 g Albumin Fraction V, 7 ml Fetal bovine serum, 10 ml Chick embryo extract, 2 ml Penicillin/Streptomycin, and 2 mg 20-hydroxyecdysone (prepared in ethanol prior to addition) to a final volume of 100 ml and sterile filtered (0.2 μm filter)). Cells were maintained in a high humidity incubator at 29° C. until testing.
The calcium imaging and acquisition protocols using roach neuronal cells is as follows:
Cells were rinsed in standard physiological saline having the following composition (mM): NaCl 190; CaCl2 9; KCl 3.1; probenicid 1; Tris buffer 10; pH 7.2. Cells were then bathed in standard physiological saline containing the calcium sensitive fluoroprobe Fluo-4 AM (2 μM) and Pluronic F127 (0.002%) for 45 min. Cells were then rinsed in standard physiological saline for at least 15 min prior to testing. Within the hour prior to testing, standard physiological saline was replaced with standard physiological saline containing the organic cation channel blocker pimozide (10 μM), to inhibit influx of external calcium through voltage-gated calcium channels. The 96-well plate was placed on a Prior™ motorized stage mounted onto a Nikon Diaphot microscope and imaged using a 20× Fluor objective (NA 0.75). Individual wells from the 96-well plate were sequentially excited with light at 495 nm, and the emitted fluorescence at 530 nm was detected using a Hamamatsu ORCA ER digital camera with 2 pixel binning (image size 672×512 pixels).
Acquisition control, image processing and image analysis were conducted using Universal Imaging Corporation's MetaMorph™ imaging software (Universal Imaging, West Chester, Pa.). A series of 3 “control” images were acquired for each well. […]

In assay [3] the target is T1, recombinant Drosophila melanogaster ryanodine receptors (expressed in Sf9 cells) (Drosophila melanogaster, UniProt Q24498).
T1 construct: expressed in transfected cells
Type of assay: cell-based. The conditions noted are these: for Calcium Release (D. melanogaster): Table 6, result in words, receptor transiently or stably expressed in Sf9 cells; for Calcium Release Threshold (nM) D. melanogaster: receptor expressed in Sf9 cells. As to the method: The Spodoptera frugiperda cell line Sf9 used for transfection studies, was maintained in Sf-900 II SFM medium (Invitrogen Life Technologies™, Carlsbad, Calif.) in T-75 flasks incubated at 27° C. It is understood that those skilled in the art might choose alternative cell types such as the Spodoptera frugiperda cell line Sf21 or the Drosophila cell line S2. For the purpose of general handling and propagation, cells were suspended through scraping or agitation and a volume of cell suspension was added to each well of a poly-L-lysine coated 96-well, glass-bottom plate so as to provide 70-80% confluence. Cells were maintained in an incubator at 27° C. until testing.
SF900-II media was used to bring the final volume in the dish to 2 ml and the cells were incubated at 27 degrees C. for 21 h. Following the incubation the media was aspirated from the dish and replaced with 1 ml of SF900-II media pre-warmed to 27 degrees C.
The transient transfection was carried out following an InsectSelect BSD System manual (Invitrogen Life Technologies™, Carlsbad, Calif.). […] The transfection was accomplished by adding the transfection solution drop-wise to the dish and incubating 4 h at room temperature with gentle rocking. […]
(§1) Several drops of a suspension of recombinant Spodoptera frugiperda cell line, Sf9, transiently expressing insect ryanodine receptors were placed on a poly-L-lysine-coated coverslip and allowed to attach. Cells were then rinsed in physiological saline having the following composition (mM): NaCl 130; KCl 5.4; MgCl2 1.2; CaCl2 1.0; NaHCO3 4.2; NaH2P04 7.3; Glucose 10; Sucrose 63; MES 20; pH 6.3. Cells were then bathed in physiological saline containing the calcium sensitive fluoroprobe, Fura-2 AM (2 μM), and Pluronic F127 (0.002%) for 30 min. Cells were rinsed in standard physiological saline for at least 15 min prior to testing. Testing was conducted in standard physiological saline, as the cell lines are devoid of functional voltage-gated calcium channels.
Cell-attached coverslips were placed in a sealed chamber with physiological saline continuously perfused across the cells using a peristaltic pump. Test compounds solubilized in physiological saline were applied by switching the perfusate source.
(§2) For studies involving the stable recombinant Spodoptera frugiperda cell line, Sf9, (other cell lines could also be used such as Sf21, S2, etc) expressing an insect ryanodine receptor from Drosophila melanogaster, or Heliothis virescens (alternatively receptors from other species such as Myzus persicae, Peregrinus maidis, Aphis gossypii, etc) were grown in T75 (or other appropriate sized) flasks in supplemented Grace's insect medium. Cells were maintained in an incubator at 22° C. until testing. Cells were suspension-loaded with the calcium sensitive fluoroprobe, Fura-2 AM (1-2 μM) and Pluronic F127 (0.002%) in culture medium for 30 minutes under agitation. Cells were then centrifuged and the pellet resuspended in physiological saline having the following composition (mM): NaCl 130; KCl 5.4; MgCl2 1.2; CaCl2 1.0; NaHCO3 4.2; NaH2P04 7.3; Glucose 10; Sucrose 63; MES 20; pH 6.3 at approximately 150,000-200,000 cells per well (96-well plate). After a 30 minute equilibration period the cell plate was tested using a Molecular Devices' FlexStation™ system with dual wavelength excitation (340 and 380 nm) and fluorescence emission measured at 510 nm. Test and control samples were added using integrated fluidics and the intracellular calcium monitored over a 2 minute period.

Assay [4] concerns control cells without DNA / wild-type Sf9 cells. In words: Calcium response in control Sf9 cells (without DNA, lipid only, non-transfected, wild type). Type of assay: cell-based, Spodoptera frugiperda. Particulars: Compound 16 10 and 100 nM.
Excerpt: as §1
Imaging studies were conducted using a Nikon Diaphot microscope with a 40× oil immersion objective (NA 1.3) Image acquisition and processing was performed using the MetaFluor™ imaging system from Universal Imaging Corporation (West Chester, Pa.) Calcium calibration was carried out using the Grynkiewicz equation with a dissociation constant (Kd) of 145 nM for Fura-2 (Grynkiewicz et al., 1985). Cell-attached coverslips were placed in a sealed chamber with physiological saline continuously perfused across the cells using a peristaltic pump. Test compounds solubilized in physiological saline were applied by switching the perfusate source.
as §2

19 molecules from patent publication US7655395B2, “Isolation and use of ryanodine receptors” (E.I. du Pont de Nemours and Company, priority 2002, dated 2010) can be followed below.

Chain of native cockroach ryanodine receptors (roach femoral muscle membranes) (A0ABQ8T696 entry or part of it): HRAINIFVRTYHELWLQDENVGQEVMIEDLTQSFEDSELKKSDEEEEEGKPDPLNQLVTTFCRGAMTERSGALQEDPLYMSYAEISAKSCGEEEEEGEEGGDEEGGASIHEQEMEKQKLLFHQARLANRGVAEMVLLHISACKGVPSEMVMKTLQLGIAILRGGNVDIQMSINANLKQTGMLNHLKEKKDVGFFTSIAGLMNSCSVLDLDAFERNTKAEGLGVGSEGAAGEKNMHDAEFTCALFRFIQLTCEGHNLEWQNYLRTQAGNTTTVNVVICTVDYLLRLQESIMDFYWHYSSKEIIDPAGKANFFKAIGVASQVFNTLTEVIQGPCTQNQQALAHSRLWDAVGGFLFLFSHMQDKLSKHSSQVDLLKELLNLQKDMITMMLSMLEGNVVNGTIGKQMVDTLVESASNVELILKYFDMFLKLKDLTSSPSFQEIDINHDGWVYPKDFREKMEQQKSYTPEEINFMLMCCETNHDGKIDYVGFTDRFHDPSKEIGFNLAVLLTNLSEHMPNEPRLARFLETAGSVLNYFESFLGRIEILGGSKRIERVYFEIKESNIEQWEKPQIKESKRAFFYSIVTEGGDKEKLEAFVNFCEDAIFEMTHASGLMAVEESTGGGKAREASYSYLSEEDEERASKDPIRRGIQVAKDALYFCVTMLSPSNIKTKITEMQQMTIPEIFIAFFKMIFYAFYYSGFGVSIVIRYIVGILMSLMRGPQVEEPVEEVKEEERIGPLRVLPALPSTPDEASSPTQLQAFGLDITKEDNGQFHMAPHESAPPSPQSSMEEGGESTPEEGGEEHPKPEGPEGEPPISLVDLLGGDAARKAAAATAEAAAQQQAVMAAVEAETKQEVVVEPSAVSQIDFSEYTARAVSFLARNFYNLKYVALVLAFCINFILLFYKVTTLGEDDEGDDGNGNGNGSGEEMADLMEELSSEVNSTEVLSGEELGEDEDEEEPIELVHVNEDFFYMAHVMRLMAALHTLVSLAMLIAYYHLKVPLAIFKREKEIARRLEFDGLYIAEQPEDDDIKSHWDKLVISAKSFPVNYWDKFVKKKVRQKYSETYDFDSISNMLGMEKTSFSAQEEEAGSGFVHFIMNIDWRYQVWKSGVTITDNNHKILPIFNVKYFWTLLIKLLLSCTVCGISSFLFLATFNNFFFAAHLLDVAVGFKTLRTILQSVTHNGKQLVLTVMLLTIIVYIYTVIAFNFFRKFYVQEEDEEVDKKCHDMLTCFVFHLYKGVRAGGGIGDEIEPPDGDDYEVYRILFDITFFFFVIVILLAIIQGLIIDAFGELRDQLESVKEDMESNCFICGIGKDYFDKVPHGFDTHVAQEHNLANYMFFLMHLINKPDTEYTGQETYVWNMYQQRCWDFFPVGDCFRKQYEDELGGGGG

The term IC50 denotes the point on the concentration scale where inhibition reaches its midpoint. Regarding `Cc1cc(Br)cc(C(=O)NC(C)C)c1NC(=O)c1cc(Br)nn1-c1ncccc1Cl` [Cpd 12], the IC50 in assay [1] was below 300 nM. Besides, the “Calcium Release Threshold (nM) P. americana” value in assay [2] is listed as below 300 nM.
Turning to `Cc1cc(Br)cc(C(=O)NCC(C)C)c1NC(=O)c1cc(C(F)(F)F)nn1-c1ccccc1Cl` [Cpd 3], the IC50 in assay [1] is below 300 nM.
Regarding `N.N.N.N.N.N.N.N.N.N.N.N.N.N.[Cl-].[Cl-].[Cl-].[Cl-].[Cl-].[Cl-].[O-2].[O-2].[Ru+3].[Ru+3].[Ru+4]` [Ruthenium Red, reference compound], the “Radioligand Displacement (P. americana)” value in assay [1] is “Displacer”. Besides, in assay [3], the “Calcium Release (D. melanogaster)” value was “Antagonist”. In addition, the “Calcium Release (P. americana)” value in assay [2] is recorded as “Inactive”.
As to `[3H]c1cc(C)c(NC(=O)c2cc(C(F)(F)F)nn2-c2ccccc2F)c(C(=O)NC(C)C)c1` [Cpd 1, 1-(2-Fluorophenyl)-N-[2-methyl-4-tritio-6-[[(1-methylethyl)amino]carbonyl]phenyl]-3-(trifluoromethyl)-1H-pyrazole-5-carboxamide], the IC50 in assay [1] is below 300 nM. Moreover, the “Calcium Release Threshold (nM) D. melanogaster” value in assay [3] was below 300 nM.
For the molecule `CNC(=O)c1cc(Cl)cc(C)c1NC(=O)c1cc(C(F)(F)F)nn1-c1ncccc1Cl` [Cpd 11], the IC50 in assay [1] was below 300 nM. In addition, the “Calcium Release Threshold (nM) D. melanogaster” value in assay [3] is reported as below 300 nM. In assay [2], the “Calcium Release Threshold (nM) P. americana” value was below 300 nM.
For `Cc1cccc(C(=O)NC(C)C)c1NC(=O)c1cc(C(F)(F)F)nn1-c1ccccc1Cl` [Cpd 2], the IC50 in assay [1] is below 300 nM. For the same molecule, the “Calcium Release Threshold (nM) D. melanogaster” value in assay [3] was below 300 nM. Besides, the “Calcium Release Threshold (nM) P. americana” value in assay [2] is listed as below 300 nM.
Regarding `Cc1cccc(C(=O)NC(C)C)c1NC(=O)c1cc(Cl)nn1-c1ncccc1Cl` [Cpd 8], the IC50 in assay [1] is below 300 nM. Further, the “Calcium Release Threshold (nM) P. americana” value in assay [2] was below 300 nM.
As for `CNC(=O)c1cc(Br)cc(C)c1NC(=O)c1cc(C(F)(F)F)nn1-c1ncccc1Cl` [Cpd 15], in assay [1], the IC50 was below 300 nM. In assay [2], the “Calcium Release Threshold (nM) P. americana” value is on record as below 300 nM.
In the case of `Cc1cc(Cl)cc(C(=O)NC(C)C)c1NC(=O)c1cc(Cl)nn1-c1ncccc1Cl` [Cpd 16], the “calcium response in control cells without DNA” value in assay [4] is “No significant calcium responses”. The IC50 in assay [1] was below 300 nM. In assay [3] (Compound 16 10 and 100 nM, Sf9 transiently expressing D. melanogaster ryanodine receptor, 96 hr post-transfection, FIG. 3), the calcium response result is listed as “calcium responses elicited”. In addition, the “Calcium Release Threshold (nM) D. melanogaster” value in assay [3] is on record as below 300 nM. Further, the “Calcium Release Threshold (nM) P. americana” value in assay [2] is below 300 nM.
In the case of `CCNC(=O)c1cc(Br)cc(Br)c1NC(=O)c1cc(C(F)(F)F)nn1-c1ncccc1Cl` [Cpd 18], the IC50 in assay [1] was below 300 nM.
For the molecule Ryanodine [reference compound], the “Radioligand Displacement (P. americana)” value in assay [1] is listed as “Inactive”. The “Calcium Release (D. melanogaster)” value in assay [3] is given as “Antagonist”. In addition, in assay [2], the “Calcium Release (P. americana)” value is “Antagonist”.
For `Cc1cc(Br)cc(C(=O)NC(C)C)c1NC(=O)c1cc(C(F)(F)F)nn1-c1ncccc1Cl` [Cpd 9], in assay [1], the IC50 is below 300 nM. In addition, the “Calcium Release Threshold (nM) P. americana” value in assay [2] is reported as below 300 nM.
With `CNC(=O)c1cc(Cl)cc(C)c1NC(=O)c1cc(Cl)nn1-c1ncccc1Cl` [Cpd 17], the IC50 in assay [1] was below 300 nM. In assay [2], the “Calcium Release Threshold (nM) P. americana” value was below 300 nM.
For `Oc1c(Br)cc2[nH]c3cnccc3c2c1Br` [Bromoeudistomin D, reference compound], in assay [2], the “Calcium Release (P. americana)” value is listed as “Agonist”.
For the molecule `Cc1cccc(C(=O)NC(C)C)c1NC(=O)c1cc(Br)nn1-c1ncccc1Cl` [Cpd 7], the 50% inhibitory concentration (IC50) in assay [1] is below 300 nM. In assay [2], the “Calcium Release Threshold (nM) P. americana” value is on record as below 300 nM.
On to `Cc1cc(Cl)cc(C(=O)NC(C)C)c1NC(=O)c1cc(Br)nn1-c1ncccc1Cl` [Cpd 13], for which, in assay [1], the IC50 is below 300 nM.
`Cc1cc(Cl)cc(C(=O)NC(C)C)c1NC(=O)c1cc(C(F)(F)F)nn1-c1ncccc1Cl` [Cpd 10]: the IC50 in assay [1] is below 300 nM. For the same molecule, the “Calcium Release Threshold (nM) P. americana” value in assay [2] is given as below 300 nM.
In the case of `COc1cccc2c1C(=O)c1c(O)c3c(c(O)c1C2=O)C[C@@](O)(C(=O)CO)C[C@@H]3O[C@H]1C[C@H](N)[C@H](O)[C@H](C)O1.Cl` [Doxorubicin, reference compound], the “Calcium Release (P. americana)” value in assay [2] is “Inactive”.
Take `CNC(=O)c1cccc(C)c1NC(=O)c1cc(C(F)(F)F)nn1-c1ncccc1Cl` [Cpd 6]: the IC50 in assay [1] was below 300 nM. In assay [2], the “Calcium Release Threshold (nM) P. americana” value was below 300 nM.
